Experimental data from the supplement of paper PMC10307832.

Compound: CC1(COc2ccc3c(c2)ncn3-c2ccc3cccc(N4CCC(N)CC4)c3n2)COC1 [Crenolanib] + CC1(C)CCC(c2ccc(Cl)cc2)=C(CN2CCN(c3ccc(C(=O)NS(=O)(=O)c4ccc(N[C@H](CCN5CCOCC5)CSc5ccccc5)c(S(=O)(=O)C(F)(F)F)c4)cc3)CC2)C1 [Navitoclax] (partner 0.5 µM)
Assay: relative viability (nuclei count vs DMSO), 5 days (fraction); higher = more cells survive
Conditions: first compound 0.01 µM
In short: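 Lung cancer cell lines were pin-tool dosed in 1536-well plates on the day after seeding, with either a lone drug or a fixed anchor-drug dose plus five library-drug doses (not always all listed) in √10 steps. Nuclei were counted on 4× images after 5 days. Relative viability is the ratio of treated-well to vehicle-well nuclei counts, with each value a median of duplicate plates.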

Cell Line	relative viability
NCI-H838	1.19
NCI-H1651	1.1
EBC-1	0.504
NCI-H1734	0.846
NCI-H2009	1.2
PC-14	1.08
LCLC-97TM1	0.489
NCI-H596	1.02
NCI-H2228	0.796
EMC-BAC-2	1.22
NCI-H2087	1.02
Calu-6	1.02
HCC-44	0.951
NCI-H1703	1
NCI-H647	1.13
LK-2	0.909
NCI-H2126	0.891

Cell Line	relative viability
SK-MES-1	1.4
HARA	1.13
COR-L23	1.06
COR-L 105	0.766
LC-2-ad	0.492
LU99A	0.989
ChaGo-K-1	0.674
NCI-H2170	0.612
NCI-H3122	0.987
IA-LM	0.749
HCC-78	0.754
A549	1.2
LXF-289	0.92
NCI-H727	0.57
NCI-H1299	1.04
NCI-H1792	0.656

Same assay, conditions: first compound 0.03162 µM

Cell Line	relative viability
NCI-H838	1.16
NCI-H1651	1.07
EBC-1	0.395
NCI-H1734	0.778
NCI-H2009	1.17
EPLC-272H	1.25
PC-14	1.01
LCLC-97TM1	0.525
NCI-H596	1.04
NCI-H2228	0.62
EMC-BAC-2	1.21
NCI-H2087	0.9
Calu-6	0.781
HCC-44	0.998
NCI-H1703	0.657
NCI-H647	1.22
LK-2	1.07

Cell Line	relative viability
NCI-H2126	0.888
SK-MES-1	1.4
HARA	1.16
COR-L23	1.07
COR-L 105	0.778
LC-2-ad	0.48
LU99A	0.802
ChaGo-K-1	0.917
NCI-H2170	0.549
NCI-H3122	1
IA-LM	0.692
HCC-78	0.8
A549	1.13
LXF-289	0.977
NCI-H727	0.414
NCI-H1299	1.04
NCI-H1792	0.408

Same assay, conditions: first compound 0.1 µM

Cell Line	relative viability
NCI-H838	1.21
NCI-H1651	0.935
EBC-1	0.467
NCI-H1734	0.796
NCI-H2009	1.13
EPLC-272H	0.988
PC-14	0.986
LCLC-97TM1	0.489
NCI-H596	0.805
NCI-H2228	0.764
EMC-BAC-2	1.09
NCI-H2087	0.867
Calu-6	0.826
HCC-44	0.961
NCI-H1703	0.286
NCI-H647	0.967
LK-2	0.93

Cell Line	relative viability
NCI-H2126	0.831
SK-MES-1	1.25
HARA	1.16
COR-L23	0.922
COR-L 105	0.713
LC-2-ad	0.367
LU99A	0.846
ChaGo-K-1	1
NCI-H2170	0.65
NCI-H3122	0.985
IA-LM	0.809
HCC-78	0.726
A549	1.18
LXF-289	0.873
NCI-H727	0.462
NCI-H1299	0.987
NCI-H1792	0.579

Same assay, conditions: first compound 0.3162 µM

Cell Line	relative viability
NCI-H838	1.2
NCI-H1651	1.23
EBC-1	0.566
NCI-H1734	0.952
NCI-H2009	1.24
EPLC-272H	1.17
PC-14	1.11
LCLC-97TM1	0.473
NCI-H596	0.899
NCI-H2228	1.24
EMC-BAC-2	1.36
NCI-H2087	1.06
Calu-6	0.941
HCC-44	0.987
NCI-H1703	0.254
NCI-H647	1.11
LK-2	1.05

Cell Line	relative viability
NCI-H2126	0.916
SK-MES-1	1.45
HARA	1.18
COR-L23	1.12
COR-L 105	0.975
LC-2-ad	0.647
LU99A	0.893
ChaGo-K-1	0.844
NCI-H2170	0.665
NCI-H3122	1.04
IA-LM	0.95
HCC-78	0.727
A549	1.53
LXF-289	1
NCI-H727	0.467
NCI-H1299	1.08
NCI-H1792	0.673

Same assay, conditions: first compound 1 µM

Cell Line	relative viability
NCI-H838	1.02
NCI-H1651	1.03
EBC-1	0.571
NCI-H1734	0.886
NCI-H2009	1.01
EPLC-272H	1.08
PC-14	0.988
LCLC-97TM1	0.445
NCI-H596	0.822
NCI-H2228	1.3
EMC-BAC-2	1.16
NCI-H2087	1.12
Calu-6	0.838
HCC-44	0.94
NCI-H1703	0.198
NCI-H647	0.98
